Experimental findings from patent US20250281496A1, “METHODS OF TREATING NEUROPATHY USING FORETINIB AND COMPOSITIONS THEREOF” (INDIANA UNIVERSITY RESEARCH AND TECHNOLOGY CORPORATION, priority 2022, published 2025) are described below.

Molecules are shown by their SMILES.

Holding throughout (type): in vivo
In assay [1] the test system is experimental diabetic neuropathy. Put plainly: Intraepidermal nerve fiber density (IENFD) in plantar skin of STZ-diabetic mice. The procedure: The primary objective of these experiments was to determine the effect of oral Foretinib on cutaneous innervation density in an experimental diabetic neuropathy. The numbers of animals needed for these experiments were determined by power analysis based on preliminary experiments assessing the cutaneous innervation density in diabetic and non-diabetic mice. A 50% increased nerve fiber density compared to the diabetic control was considered scientifically relevant, requiring a minimum of n=5 animals per group to achieve a power of 0.9 when assuming a standard deviation (SD) of 0.01 for all groups (normally distributed, two-sided). Animals were randomly allocated to experimental groups prior to induction of diabetes and the investigators were blinded during outcome assessments. Two experimental animals allocated to the Foretinib treated group were excluded from the experiment after not responding to the STZ injections. No outliers were excluded from the analysis. After five weeks, the experiment was terminated because 4 of 8 animals reached a predefined humane endpoint of greater than 15% weight loss compared to their pre-diabetic weight. The scheduled experimental endpoint was 12 weeks post-STZ injection.
A total of 25 adult (24-28g), transgenic mice with a genetic black six background were included. […]

Assay [2] has the same test system. The assay can be described thus: Lower extremity nerve histomorphology (sciatic and sural nerve) in STZ-diabetic mice. As to conditions: 30 mg/kg oral daily, five weeks post-diabetes induction. How it is done:
In total, 20 mice were injected with 100 mg/kg bodyweight of streptozotocin (STZ, […], Sigma Aldrich) in 0.1M citrate buffer (pH 4.5) on two consecutive days respectively, to induce diabetes type 1^27. Prior to the first injection and in weekly intervals thereafter, all animals were weighted and underwent tail prick blood sugar measurements using a clinical grade monitoring system (Contour One, Ascensia Diabetes Care, Mississauga, Ontario) as previously described. Mice were considered diabetic when blood glucose was at least 15 mmol/L (270 mg/dl). Prior to diabetes induction the mice were block randomized into experimental groups (n=10 Foretinib treatment, n=5 vehicle treatment, n=5 non-treated diabetic control). An additional 5 non-diabetic animals served as a healthy control. Foretinib treatments started 1-week post-diabetes induction. Foretinib was prepared fresh daily by dissolving 6 mg Foretinib in 1 ml of 1% (Hydroxypropyl)-methyl cellulose (09963, Sigma Aldrich) and 0.2% sodium dodecyl sulfate ([…], Sigma Aldrich) in sterile H2O. […] A custom-trained deep learning model based on the open-source software AxonDeepSeg^29 determined axon diameter and myelin sheath thickness and g-ratio for entire nerve cross sections.

In assay [3] the test system is TDP-43 mutant Zebra fish larvae. Put plainly: TDP-43 mutant Zebra fish larvae ALS model. Set-up: motor neuron axon length and NMJ formation: dose or concentration left out as unconfirmed.

Regarding `COc1cc2c(Oc3ccc(NC(=O)C4(C(=O)Nc5ccc(F)cc5)CC4)cc3F)ccnc2cc1OCCCN1CCOCC1` [Foretinib, N1-[3-Fluoro-4-({6-methoxy-7-[3-(morpholin-4-yl)propoxy]quinolin-4-yl}oxy)phenyl]-N′1-(4-fluorophenyl)cyclopropane-1,1-dicarboxamide], in assay [1] (30 mg/kg oral daily, 5 weeks post-diabetes induction, versus other diabetic groups), the “intraepidermal nerve fiber density (IENFD), plantar skin” value is on record as “similarly reduced IENFD”. Further, in assay [1] (all diabetic groups incl. Foretinib 30 mg/kg/day oral, five weeks after diabetes induction), the “reduction in epidermal nerve fiber density compared to healthy mice” value was found to be 25%. Further, the “peripheral nerve histomorphology (axon diameter, myelin sheath thickness, g-ratio)” value in assay [2] is given as “did not affect peripheral nerve histomorphology”. In addition, in assay [3] (2 days old larvae exposed to Foretinib), the “motor neuron axon length and NMJ formation” value was “longer and forms more NMJ”. Also, the swimming deficits result in assay [3] (TDP-43 mutant larvae, data not shown) is “rescuing its swimming deficits”.
